For this series, the system named is mpkCCDcl4 cells. Description: Ussing-chamber short-circuit current (SCC) measurement of net transepithelial ion transport. The class given is cell-based, mouse. To be noted: for effect of pretreatment on cyst fluid stimulated ion transport (SCC): inhibitor/effector added before 10% cyst fluid on serosal side; for ion transport (SCC) response to addition of the substance itself: added to the bathing media of monolayers, no prior stimulus. The method, then:
mpkCCDcl4 cell culture. mpkCCDcl4 cells were developed as a line expressing the characteristics of the principal cell type of the distal nephron and cortical collecting duct. mpkCCDcl4 cells were grown in a humidified chamber at 37° C. and 5% CO2. The cell line was maintained in plastic culture flasks for propagation. For electrophysiological measurements, the cells were seeded onto Transwell filters at ¼ confluent density. The media was replaced thrice weekly and consisted of Dulbecco's modified Eagle's medium (DMEM): Ham's F12 basal media supplemented with 2% fetal bovine serum, 1 mM Glutamax, 25 U/mL penicillin, […] streptomycin, 12 mg/L ciprofloxacin, 5 mg/L transferrin, 20 μg/L sodium selenite, and 10^−7 M triiodothyronine.
Electrophysiology. Ussing-style electrophysiological measurements were used to measure net transepithelial transport as well as to monitor the transepithelial resistance as described previously. Briefly, transwell permeable membranes containing confluent (>10 days post seeding) monolayers of mpkCCDcl4 cells were excised from the plastic supports, mounted in modified Ussing chambers, and connected to a DVC-1000 Voltage/Current Clamp (World Precision Instruments) with voltage and current electrodes on either side of the membrane. The cells were bathed in serum-free medium maintained at 37° C. via water-jacketed buffer chambers on either side of the filter. Medium was circulated and kept at constant pH using a 5% CO2/95% O2 gas lift. The spontaneous transepithelial potential difference was measured and then clamped to zero. The resulting short-circuit current (SCC) is a measure of net transepithelial ion transport. During the entire experiment, non-zero voltage pulses are induced every 200 seconds and the current displacement during the pulse is used to calculate the transepithelial resistance via Ohm's law. Cultures with resistances lower than 1000 Ω·cm^2 measured within the first 10 minutes of placement in the chambers were discarded. The basal level of transport was monitored for 20-40 minutes before the start of an experiment. The time of addition of the stimulatory effector is defined as zero time.
Unless otherwise stated, each experiment was repeated 3-4 times. Because of variability in the magnitude of the stimulatory responses to cyst fluid from various patients, only one representative experiment is depicted.
The functional effects of cyst fluid were measured as changes in net transepithelial ion transport across high resistance epithelia formed by the mpkCCDcl4 cell line. […] For electrophysiological measurements, confluent cell monolayers grown on permeable supports are mounted in Ussing chambers with access to both the basolateral and apical surfaces. The spontaneous transepithelial potential difference is measured and clamped to zero. In high resistance epithelia, the resulting short-circuit current (SCC) is a measure of net transepithelial transport. By convention, a positive change is defined as anion moving in a secretory direction (serosal to luminal bathing media) or a cation moving in an absorptive direction (luminal to serosal bathing media). Likewise, a decrease in SCC can be defined as anions or cations moving in the opposite direction from that described above. The nature and direction of the ion flux is characterized by effectors and inhibitors.

With `[Ba+2]` [Ba^2+], the “effect on stimulated Cl- secretion” value (pretreatment on the apical face) is “without effect”. Besides, the “inhibition of stimulated Cl- secretion” value (pretreatment on the serosal side) is listed as “about 50%”.

Turning to `CCCCCCCCCCCCOP(=O)(O)O` [DDP, dodecylphosphate], the “effect of pretreatment on cyst fluid stimulated ion transport (SCC)” value (“effect of pretreatment” below) is “no effect”.

As to `CCCCCCCC(=O)OC[C@H](COP(=O)(O)OP(=O)(O)O)OC(=O)CCCCCCC` [DGPP, diacylglycerol pyrophosphate], the “concentrations with adverse effect on integrity of the cellular monolayer (decrease in transepithelial resistance)” value is given as “above 20 μM” and the “effect of pretreatment” value is given as “substantially inhibited”. In addition, under “pretreatment with 20 μM DGPP, five experiments”, the “average inhibition of the Cl- secretory peak stimulated in response to 10% cyst fluid” value was 72.8+4.49%. As for `O=C(CNc1ccc2ccccc2c1)N/N=C/c1cc(Br)c(O)c(Br)c1O` [GlyH-101], the “ion transport (SCC) response to addition of the substance itself” value (from here on “ion transport (SCC) response to addition”) is listed as “causes a stimulatory response when added” and the “effect of pretreatment” value was “Neither inhibitor alone completely blocked the response”. Consider `COc1ccc2c(c1)c(CC(=O)O)c(C)n2C(=O)c1ccc(Cl)cc1` [Indomethacin, indomethacin], for which the “effect of pretreatment” value is given as “did not alter”. As to `CCCCCCCCCCCCC/C=C/[C@@H](O)[C@@H](N)COP(=O)(O)O` [S-1-P, sphingosine-1-phosphate], the “ion transport (SCC) response to addition” value was “consistently minimal compared to those elicited by LPA”. Take `N=C(N)NC(=O)c1nc(Cl)c(N)nc1N` [amiloride]: the “ion transport (SCC) response to addition” value was “immediate decrease in the basal current”. Also, for the setting “amiloride 10^-5 M apical, 10 minutes before forskolin”, the “effect of pre-treatment on subsequent response to forskolin” value was “completely eliminated a subsequent response to forskolin”. In addition, the “effect on forskolin-stimulated ion transport, added after forskolin” value (amiloride 10^-5 M apical, 30 minutes after forskolin) is reported as “completed inhibited”. The “effect on ion transport remaining 30 minutes after cyst fluid addition” value (amiloride added to apical bathing media) is on record as “decreased the remaining ion transport to zero”. `O=C(OC[C@H]1O[C@@H](OC(=O)c2cc(O)c(O)c(OC(=O)c3cc(O)c(O)c(O)c3)c2)[C@H](OC(=O)c2cc(O)c(O)c(OC(=O)c3cc(O)c(O)c(O)c3)c2)[C@@H](OC(=O)c2cc(O)c(O)c(OC(=O)c3cc(O)c(O)c(O)c3)c2)[C@@H]1OC(=O)c1cc(O)c(O)c(OC(=O)c2cc(O)c(O)c(O)c2)c1)c1cc(O)c(O)c(OC(=O)c2cc(O)c(O)c(O)c2)c1` [tannic acid]: the “effect of pretreatment” value is recorded as “Neither inhibitor alone completely blocked the response”.

On to “N-palmitoyl-L-serine phosphoric acid [L-NASPA]”, for which the “ion transport (SCC) response to addition” value was “immediate response that mimics the response to LPA or 10% cyst fluid” and the “effect of pretreatment” value is given as “appears to inhibit a subsequent response to cyst fluid”. As for lysophosphatic acid [LPA], the “ion transport (SCC) response to addition” value is recorded as “identical to the response to renal cyst fluid”.

(Values after patent publication US9579335B2, “Treatment of cystic diseases” (Indiana University Research and Technology Corporation, priority 2010, dated 2017).)
